We go through 34 compounds from PubChem BioAssay AID1259408 (Genetic Toxicology Data Bank (GENE-TOX), 2018).

The test system of this data set is GENE-TOX genotoxicity assays, various organisms and cells. The data set is described as follows: GENE-TOX mutagenicity studies. The following applies: for call: Assay Type: In vivo carcinogenicity studies.
The mark [1] stands for this setting: Species/Cell Type: Neurospora crassa, Assay Type: Forward gene mutation, Assay Code: NEF+, Evaluation Type: Evaluation A (Pre-1980).
[2] abbreviates: Species/Cell Type: Nonhuman, Assay Type: Sister-chromatid exchange (SCE) in vitro, Assay Code: SC2T, Evaluation Type: Evaluation B (Post-1980).
Setting [3] is: Species/Cell Type: Mouse, Sex: Male, Assay Type: Sperm morphology, Assay Code: SPI-, Evaluation Type: Evaluation A (Pre-1980).
Setting [4] is: Species/Cell Type: Nonhuman, Assay Code: CCGT, Evaluation Type: Evaluation A (Pre-1980).
[5] abbreviates: Species/Cell Type: Saccharomyces cerevisiae, Assay Type: Reverse gene mutation, Assay Code: YERT, Evaluation Type: Evaluation A (Pre-1980).
[6] abbreviates: Species/Cell Type: Bacillus subtilis (H17 vs M45), Assay Type: Rec-assay, spot test, DNA effects (bacterial DNA repair), Assay Code: REW+, Evaluation Type: Evaluation A (Pre-1980).
Setting [7] is: Species/Cell Type: Rodents, Sex: Male, Assay Type: Dominant lethal test, Assay Code: DLT-, Evaluation Type: Evaluation A (Pre-1980).
The mark [8] stands for this setting: Species/Cell Type: Salmonella typhimurium (one or more of the five standard strains: TA98, TA100, TA1535, TA1537, and TA1538), Assay Type: Histidine reverse gene mutation, Ames assay, Assay Code: SAL-, Evaluation Type: Evaluation A (Pre-1980).
Setting [9] is: Species/Cell Type: Human, Sex: Male, Assay Type: Sperm morphology, Assay Code: SPHT, Evaluation Type: Evaluation A (Pre-1980).
Where [10] appears, read: Species/Cell Type: Nonhuman, Assay Type: Sister-chromatid exchange (SCE) in vitro, Assay Code: SC2+, Evaluation Type: Evaluation B (Post-1980).
Where [11] appears, read: Species/Cell Type: Saccharomyces cerevisiae, Assay Type: Mitotic recombination or gene conversion, Assay Code: YEH-, Evaluation Type: Evaluation A (Pre-1980).
The mark [12] stands for this setting: Species/Cell Type: Salmonella typhimurium (one or more of the five standard strains: TA98, TA100, TA1535, TA1537, and TA1538), Assay Type: Histidine reverse gene mutation, Ames assay, Assay Code: SALT, Evaluation Type: Evaluation A (Pre-1980).
Setting [13] is: Species/Cell Type: Salmonella typhimurium (one or more of the five standard strains: TA98, TA100, TA1535, TA1537, and TA1538), Assay Type: Histidine reverse gene mutation, Ames assay, Assay Code: SAL+*, Activation: With metabolic activation, Evaluation Type: Evaluation A (Pre-1980).
[14] abbreviates: Species/Cell Type: Human lymphocytes, Assay Type: Sister-chromatid exchange (SCE) in vitro, Assay Code: SCLT, Evaluation Type: Evaluation B (Post-1980).
Setting [15] is: Species/Cell Type: Human, Assay Type: Sister-chromatid exchange (SCE) in vitro, Assay Code: SC1T, Evaluation Type: Evaluation B (Post-1980).

The source made the active and inactive calls. No rule for the calls is given here.

In the case of `C(CC1CO1)C1CO1` (centres undefined), the mutagenic call reads like this: under setting [1], “active; positive”; (Species/Cell Type: Schizosaccharomyces pombe, Assay Type: Reverse gene mutation, Assay Code: YEZ+, Evaluation Type: Evaluation A (Pre-1980)) “active; positive”. The call (Species/Cell Type: Nonhuman, Assay Code: CCG+L, Evaluation Type: Evaluation A (Pre-1980)) is “active; positive”. Regarding `O=c1[nH]c(Cl)c(Cl)cc1Cl`, the mutagenic call by setting is: under setting [2], “no conclusion”; (Species/Cell Type: Nonhuman, Assay Type: Sister-chromatid exchange (SCE) in vivo, Assay Code: SC3-, Evaluation Type: Evaluation B (Post-1980)) “inactive; negative”.

On to `[N-]=[N+]=O`, for which the mutagenic call was “active; positive” (Species/Cell Type: Chinese hamster lung (V79) cells, Assay Type: Forward gene mutation at the HPRT or ouabain locus, Assay Code: V79+, Evaluation Type: Evaluation A (Pre-1980)); “inactive; negative” under setting [3]; “no conclusion” under setting [2]; “active; positive” (Species/Cell Type: Tradescantia species, Assay Type: Gene mutation, Assay Code: TRM+D, Dose Response: With dose response, Evaluation Type: Evaluation A (Pre-1980)). Moreover, the call under setting [4] was “no conclusion”.

With `COc1ccc(/C=N/NC(=O)COc2ccc(Br)cc2CN(C)C)cc1`, the mutagenic call under setting [5] is given as “no conclusion”. Turning to `O=C1C=C2C(=CCOC2O)O1` (centres undefined), the mutagenic call under setting [6] is “active; positive”; the mutagenic call (Species/Cell Type: Human lymphocytes, Assay Type: Sister-chromatid exchange (SCE) in vitro, Assay Code: SCL+D, Dose Response: With dose response, Evaluation Type: Evaluation B (Post-1980)) was “active; positive”; the mutagenic call (Species/Cell Type: Human, Assay Type: Sister-chromatid exchange (SCE) in vitro, Assay Code: SC1+D, Dose Response: With dose response, Evaluation Type: Evaluation B (Post-1980)) is “active; positive”; the mutagenic call (Species/Cell Type: Nonhuman, Assay Type: Chromosome aberrations in vitro, Assay Code: CY&+, Evaluation Type: Evaluation A (Pre-1980)) was “active; positive”; the mutagenic call (Species/Cell Type: Nonhuman, Assay Type: Sister-chromatid exchange (SCE) in vitro, Assay Code: SC2-, Evaluation Type: Evaluation B (Post-1980)) is “inactive; negative”; the mutagenic call under setting [7] is “inactive; negative”. Further, the mutagenic call (Species/Cell Type: Saccharomyces cerevisiae, Assay Type: Mitotic recombination or gene conversion, Assay Code: YEH+/-*, Activation: With metabolic activation, Evaluation Type: Evaluation A (Pre-1980)) was “inactive; positive without activation, negative with activation” and the mutagenic call under setting [8] is “inactive; negative”. Moreover, the call under setting [4] is “no conclusion”. As to `CN(N=O)C(=O)Nc1ccccc1`, the mutagenic call (Species/Cell Type: Nonhuman, Assay Type: Sister-chromatid exchange (SCE) in vitro, Assay Code: SC2+D, Dose Response: With dose response, Evaluation Type: Evaluation B (Post-1980)) was “active; positive”. On to `C[C@H]1c2cccc(O)c2C(O)=C2C(=O)[C@]3(O)C(O)=C(C(N)=O)C(=O)[C@@H](N(C)C)[C@@H]3[C@@H](O)[C@@H]21`, for which, under setting [9], the mutagenic call is reported as “no conclusion”. With `CCCCOC(=O)c1ccccc1C(=O)OCCCC`, the mutagenic call is “active; positive” under setting [10]; “no conclusion” (Species/Cell Type: Nonhuman, Assay Type: Sister-chromatid exchange (SCE) in vitro, Assay Code: SC2T, Evaluation Type: Evaluation A (Pre-1980)); “inactive; negative” (Species/Cell Type: Saccharomyces cerevisiae, Assay Type: Reverse gene mutation, Assay Code: YER-*, Activation: With metabolic activation, Evaluation Type: Evaluation A (Pre-1980)). As for `CC(=O)OC[C@]12CCC(C)=C[C@H]1O[C@@H]1[C@H](O)[C@@H](OC(C)=O)[C@@]2(C)[C@]12CO2`, the mutagenic call by setting is: under setting [11], “inactive; negative”; under setting [12], “no conclusion”.

Turning to `COc1cc(O)ccc1O`, the mutagenic call (Species/Cell Type: Allium cepa, Assay Type: Chromosome aberrations, Assay Code: ALCT, Evaluation Type: Evaluation A (Pre-1980)) is reported as “no conclusion”. As for `C(CCC1CO1)CC1CO1` (centres undefined), the mutagenic call reads like this: under setting [1], “active; positive”; (Species/Cell Type: Salmonella typhimurium (one or more of the five standard strains: TA98, TA100, TA1535, TA1537, and TA1538), Assay Type: Histidine reverse gene mutation, Ames assay, Assay Code: SAL+, Evaluation Type: Evaluation A (Pre-1980)) “active; positive”. Regarding `CN=NNc1ccccc1`, under setting [1], the mutagenic call was “active; positive”. For `Cc1cc2c(c3ccc4ccccc4c13)CCCC2=O`, the mutagenic call under setting [13] was “active; positive”. On to `COC(=O)N/N=C/c1c[n+]([O-])c2ccccc2[n+]1[O-]`, for which, under “Species/Cell Type: Mammalian polychromatic erythrocytes, Assay Type: Micronucleus test, chromosome aberrations, Assay Code: MNT+, Evaluation Type: Evaluation B (Post-1980)”, the mutagenic call is “active; positive”. As to `CC(=O)NO`, the mutagenic call (Species/Cell Type: Human lymphocytes or leukocytes, Assay Type: Chromosome aberrations in vitro, Assay Code: CY7-, Evaluation Type: Evaluation A (Pre-1980)) is “inactive; negative”. As to `CCCCN(CC(O)CCO)N=O` (centres undefined), under setting [13], the mutagenic call is “active; positive”. As for `Nc1cnn(-c2ccccc2)c(=O)c1Cl`, the mutagenic call (Species/Cell Type: Saccharomyces cerevisiae, Assay Type: Mitotic recombination or gene conversion, Assay Code: YEC-, Evaluation Type: Evaluation A (Pre-1980)) is “inactive; negative”. As for `CN1CCC[C@H]1c1cccnc1`, the mutagenic call is, setting by setting: (Species/Cell Type: Neurospora crassa, Assay Type: Aneuploidy, chromosome aberrations, Assay Code: NEN-, Evaluation Type: Evaluation A (Pre-1980)) “inactive; negative”; under setting [10], “active; positive”; under setting [8], “inactive; negative”. On to `CCCCCCCC/C=C/CCCCCCCC(=O)OCCOCC(OCCO)C1OCC(OCCO)C1OCCO` (centres undefined), for which the mutagenic call was “no conclusion” under setting [14] and “no conclusion” under setting [15]. For the compound `Cc1cc2ccccc2cn1`, the mutagenic call under setting [12] is on record as “no conclusion”. The same measure, in the same setting: with `CC(=O)Nc1nc(-c2csc(NC(C)=O)n2)cs1` the entry was “no conclusion”.

For the compound `CCc1cccc(O)c1`, the mutagenic call under setting [14] is recorded as “no conclusion” and the mutagenic call under setting [15] was “no conclusion”. Consider `Cc1ccc(N)cc1`, for which the mutagenic call runs as follows: (Species/Cell Type: Escherichia coli polA (W3110 vs P3478), Assay Type: Rec-assay, DNA effects (bacterial DNA repair), Assay Code: RE2-, Evaluation Type: Evaluation A (Pre-1980)) “inactive; negative”; (Species/Cell Type: Escherichia coli polA (W3119 vs P3478), Assay Type: Rec-assay, DNA effects (bacterial DNA repair), Assay Code: RE1-, Evaluation Type: Evaluation A (Pre-1980)) “inactive; negative”; (Species/Cell Type: Saccharomyces cerevisiae, Assay Type: Mitotic recombination or gene conversion, Assay Code: YEH+*, Activation: With metabolic activation, Evaluation Type: Evaluation A (Pre-1980)) “active; positive”; under setting [11], “inactive; negative”. Turning to `O=NN(CCCl)C(=O)NCCCCCCNC(=O)N(CCCl)N=O`, the mutagenic call runs as follows: (Species/Cell Type: Drosophila melanogaster, Assay Type: Sex-linked recessive lethal gene mutation, Assay Code: SRL+, Evaluation Type: Evaluation A (Pre-1980)) “active; positive”; (Species/Cell Type: Saccharomyces cerevisiae, Assay Type: Mitotic recombination or gene conversion, Assay Code: YEC+, Evaluation Type: Evaluation A (Pre-1980)) “active; positive”.

For the compound `Nc1ccnc(=O)[nH]1`, the mutagenic call (Species/Cell Type: Drosophila melanogaster, Assay Type: Sex-linked recessive lethal gene mutation, Assay Code: SRLT, Evaluation Type: Evaluation A (Pre-1980)) was “no conclusion”. In the case of `ClC(Cl)c1ccccc1`, the mutagenic call was “active; positive” under setting [6] and “active; positive” under setting [13]. On to `Cc1ccc2nc3ccccc3cc2c1`, for which the mutagenic call (Species/Cell Type: Saccharomyces cerevisiae, Assay Type: Forward gene mutation, Assay Code: YEFT, Evaluation Type: Evaluation A (Pre-1980)) is reported as “no conclusion”.

In the case of `Nc1ccc(N)c(N)c1`, the mutagenic call under setting [3] was “inactive; negative” and the mutagenic call under setting [12] is “no conclusion”.

For `COc1cc(/C=N/NC(=O)COc2ccc(Br)cc2CN2CCCCC2)ccc1O`, under setting [5], the mutagenic call is recorded as “no conclusion”. As for `[Zn]`, the mutagenic call (Species/Cell Type: Human lymphocytes or leukocytes, Assay Type: Chromosome aberrations in vivo, Assay Code: CY8T, Evaluation Type: Evaluation A (Pre-1980)) is given as “no conclusion”.

Regarding `C1=CC2c3ccccc3OC2O1` (centres undefined), the mutagenic call under setting [13] was “active; positive”.

`[NH4+].[O-2].[O-2].[O-2].[O-2].[O-2].[Sb+3].[W]`: the mutagenic call (Species/Cell Type: Syrian hamster embryo (SA7/SHE) cells, Assay Type: Cell transformation, viral enhanced, Assay Code: CT7+, Evaluation Type: Evaluation A (Pre-1980)) is “active; positive”. For the compound `COC1=C(OC)C(=O)C(C/C=C(\C)CC/C=C(\C)CC/C=C(\C)CC/C=C(\C)CC/C=C(\C)CC/C=C(\C)CCC=C(C)C)=C(C)C1=O`, the mutagenic call under setting [9] was “no conclusion”. As for `NC[C@H](O)CCl`, the mutagenic call is, setting by setting: (Species/Cell Type: Rat, Sex: Male, Assay Type: Sperm morphology, Assay Code: SPA+, Evaluation Type: Evaluation A (Pre-1980)) “active; positive”; under setting [7], “inactive; negative”.
